Measurements taken from patent US20080125432A1 (Devgen NV, priority 2004, published 2008).
Where two headings read alike, the source gives them in different places.

Biological target: T1, hERG potassium channel (Homo sapiens, UniProt Q12809)
T1 construct: host or cells: HEK 293 T-REx
Assay: Whole cell patch clamp, HEK 293 T-REx HERG cells
Type: cell-based
Excerpt: For this experiment HEK 293 T-REx HERG cells (#23) were used. This cell line made by IonGate is characterized by the inducible expression of the hERG gene. The T-REx™ System (Invitrogen, Karlsruhe, Germany) is a tetracycline-regulated mammalian expression system that uses regulatory elements from the E. coli Tn10-encoded tetracycline (Tet) resistance operon. In the absence of Tet the expression is repressed. Tetracycline regulation in the T-REx™ System is based on the binding of tetracycline to the Tet repressor and derepression of the promoter controlling expression of the hERG gene. Addition of Tet to the cell culture media results in expression of the hERG potassium channel.
To construct the HEK 293 T-REx HERG cell line, the hERG gene was ligated into the inducible expression vector pcDNA4/TO (→pc4TO-HERG) and transfected into HEK 293 T-REx cells (this cell line stably expresses the Tet repressor and was purchased at Invitrogen). Stable cell clones were isolated after selection with Blasticidin (5 μg/ml) and Zeocin™ (300 μg/ml). The clones were electrophysiological characterized after induction with 1 μg/ml Tet.
Experiments were performed using the patch clamp set-up. Technical equipment needed for manipulation of the cells was placed on a vibration-isolated table and shielded with a Faraday cage to minimize electrical noise. The amplifier and control system were placed in a rack outside the Faraday cage. The system consisted of an EPC9 or EPC10 patch clamp amplifier (HEKA, Lambrecht, Germany), and the perfusion system DADVC8 (ALA Scientific, New York, USA) controlled by the Pulse software package (HEKA, Lambrecht, Germany) installed on a personal computer.
The cells used for this experiment were kept in continuous culture under standard conditions (37° C., air supplemented with 5% CO2). The HEK 293 T-REx HERG cells were kept in minimal essential medium (MEM) supplemented with 100 U/ml Penicillin, 100 μg/ml Streptomycin, 10% fetal calf serum (FCS), 1% non-essential amino acids (NEAA), 2.5 μg/ml amphotericin, 300 μg/ml Zeocin™ and 5 μg/ml Blasticidin. Cells were passed every 3-4 days after detachment using a Trypsin solution. The quality of the cultured cells was guaranteed by vitality and contamination tests. The culture of the cells was performed as described in protocol D described above.
At least 18 hours prior to electrophysiological experiments the cells were detached by application of iced PBS (phosphate buffered saline) or Trypsin and replated on cover slips. 1 μg/ml Tet was added to the cells to induce hERG expression.
Activity of the cardiac hERG channel was investigated using the patch clamp technique in its whole cell mode. This means that the current needed for clamping the whole cell expressing the K^+-channel protein to a specific potential was measured. The pipettes used for patch clamping were made of borosilicate glass. Measurements were performed at room temperature (20-25° C.). In each experiment (i.e. each cell) only one concentration of the compound was investigated no cumulative dosages were performed. Each cell acted as its own control. […]
After the whole cell configuration was established a series of pulses was applied to check for hERG expression and to optimize amplifier settings. However, only the following measurements were used for data analysis: 15 test pulses (FIG. 4a and Table 6a) were applied at 0.1 Hz (series 1) under constant superfusion with bath solution. The protocol was initiated by a leak test at −40 mV (50 ms). […] The maximum hERG tail current amplitude was measured at −40 mV (tail current test, 1.5 sec.). Only cells generating tail current amplitudes between 300 pA and 10 nA were used for the experimental procedure.
After successful characterization of the current another 10 test pulses were applied at 0.1 Hz while the cell was superfused with bath solution (series 2). […]

T1 sequence (Q12809 whole entry): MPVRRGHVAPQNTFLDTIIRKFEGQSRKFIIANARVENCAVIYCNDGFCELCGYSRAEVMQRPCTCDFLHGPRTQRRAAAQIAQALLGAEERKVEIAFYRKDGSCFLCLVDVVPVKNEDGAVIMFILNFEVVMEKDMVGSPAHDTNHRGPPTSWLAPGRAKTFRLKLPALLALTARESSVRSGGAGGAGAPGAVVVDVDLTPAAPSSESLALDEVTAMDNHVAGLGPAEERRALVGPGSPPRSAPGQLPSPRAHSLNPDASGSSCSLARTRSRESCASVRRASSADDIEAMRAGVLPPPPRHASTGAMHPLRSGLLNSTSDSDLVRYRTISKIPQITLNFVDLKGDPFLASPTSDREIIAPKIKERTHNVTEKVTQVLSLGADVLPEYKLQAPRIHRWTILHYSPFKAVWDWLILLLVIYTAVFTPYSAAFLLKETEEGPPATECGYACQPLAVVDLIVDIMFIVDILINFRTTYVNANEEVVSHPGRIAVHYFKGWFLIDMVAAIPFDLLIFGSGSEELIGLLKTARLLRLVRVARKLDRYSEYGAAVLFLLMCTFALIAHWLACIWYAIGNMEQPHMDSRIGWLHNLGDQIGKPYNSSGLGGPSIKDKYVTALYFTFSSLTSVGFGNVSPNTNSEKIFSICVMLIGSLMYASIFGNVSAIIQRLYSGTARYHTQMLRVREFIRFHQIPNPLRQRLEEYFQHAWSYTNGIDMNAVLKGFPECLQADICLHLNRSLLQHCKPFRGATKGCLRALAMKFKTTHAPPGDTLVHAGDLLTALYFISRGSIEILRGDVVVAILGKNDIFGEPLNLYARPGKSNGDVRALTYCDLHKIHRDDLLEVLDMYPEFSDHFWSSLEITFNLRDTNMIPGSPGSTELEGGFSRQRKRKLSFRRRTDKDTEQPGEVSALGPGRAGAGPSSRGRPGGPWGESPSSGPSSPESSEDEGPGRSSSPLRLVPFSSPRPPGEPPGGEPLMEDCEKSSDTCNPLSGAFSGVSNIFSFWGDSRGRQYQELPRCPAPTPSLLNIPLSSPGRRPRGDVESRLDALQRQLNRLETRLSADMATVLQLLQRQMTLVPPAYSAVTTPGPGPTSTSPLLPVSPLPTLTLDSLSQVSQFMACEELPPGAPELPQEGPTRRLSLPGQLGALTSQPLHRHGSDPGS

## Cc1nc(Nc2ccc(Br)cc2)sc1C(=O)NCc1ccc(N(C)C)cc1 [Compound 64, 2-(4-bromo-phenylamino)-4-methyl-thiazole-5-carboxylic acid 4-dimethylamino-benzylamide]
Estimated by Hill fit with hill=1, ymax=100, tested at 10 μM, n=2, read-out: IC50 (μM) hERG
  IC50: > 100 µM
Patch clamp, read-out: hERG IC50
  IC50: > 100 µM
